In PubChem BioAssay (NCI):
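GI50 is the concentration that inhibits growth by half. The concentration for full growth arrest is given as TGI.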

Tests used:
Experiment in all cases: NCI tumour cell line growth inhibition, 384-well format
HL-60(TB) leukemia = tested on: HL-60(TB) leukemia
NCI-H522 lung = tested on: NCI-H522 lung
CAKI-1 renal = tested on: CAKI-1 renal
OVCAR-8 ovarian = tested on: OVCAR-8 ovarian
SW-620 colon = tested on: SW-620 colon
UACC-62 melanoma = tested on: UACC-62 melanoma
SK-MEL-2 melanoma = tested on: SK-MEL-2 melanoma
M14 melanoma = tested on: M14 melanoma
NCI-H322M lung = tested on: NCI-H322M lung
SN12C renal = tested on: SN12C renal
SK-MEL-5 melanoma = tested on: SK-MEL-5 melanoma
MCF7 breast = tested on: MCF7 breast
MDA-MB-231 breast = tested on: MDA-MB-231 breast
SR leukemia = tested on: SR leukemia
HOP-62 NSCLC = tested on: HOP-62 NSCLC
SK-OV-3 ovarian = tested on: SK-OV-3 ovarian
MDA-MB-435 melanoma = tested on: MDA-MB-435 melanoma
MOLT-4 leukemia = tested on: MOLT-4 leukemia
RXF 393 renal = tested on: RXF 393 renal
HS 578T breast = tested on: HS 578T breast
MDA-MB-468 breast = tested on: MDA-MB-468 breast
SNB-19 CNS = tested on: SNB-19 CNS
RPMI-8226 leukemia = tested on: RPMI-8226 leukemia
786-0 renal = tested on: 786-0 renal
BT-549 breast = tested on: BT-549 breast
OVCAR-5 ovarian = tested on: OVCAR-5 ovarian
IGROV1 ovarian = tested on: IGROV1 ovarian
EKVX NSCLC = tested on: EKVX NSCLC
HT29 colon = tested on: HT29 colon
TK-10 renal = tested on: TK-10 renal
A498 renal = tested on: A498 renal
HCC-2998 colon = tested on: HCC-2998 colon
A549 NSCLC = tested on: A549 NSCLC
T-47D breast = tested on: T-47D breast
NCI-H460 NSCLC = tested on: NCI-H460 NSCLC
HOP-92 NSCLC = tested on: HOP-92 NSCLC
NCI-H23 lung = tested on: NCI-H23 lung
SNB-75 CNS = tested on: SNB-75 CNS
COLO 205 colon = tested on: COLO 205 colon
SF-268 CNS = tested on: SF-268 CNS
U251 glioblastoma = tested on: U251 glioblastoma
SF-295 CNS = tested on: SF-295 CNS
HCT-15 colon = tested on: HCT-15 colon
UACC-257 melanoma = tested on: UACC-257 melanoma
DU-145 prostate = tested on: DU-145 prostate
NCI-H226 lung = tested on: NCI-H226 lung
SF-539 CNS = tested on: SF-539 CNS
CCRF-CEM leukemia = tested on: CCRF-CEM leukemia
SK-MEL-28 melanoma = tested on: SK-MEL-28 melanoma
OVCAR-4 ovarian = tested on: OVCAR-4 ovarian
KM12 colon = tested on: KM12 colon
NCI/ADR-RES ovarian = tested on: NCI/ADR-RES ovarian
PC-3 prostate = tested on: PC-3 prostate
MALME-3M melanoma = tested on: MALME-3M melanoma
ACHN renal = tested on: ACHN renal
OVCAR-3 ovarian = tested on: OVCAR-3 ovarian

NCC(=O)CCC(=O)O
GI50 (HL-60(TB) leukemia): > 100 µM
TGI (HL-60(TB) leukemia): > 100 µM
GI50 (NCI-H522 lung): > 100 µM
TGI (NCI-H522 lung): > 100 µM
GI50 (CAKI-1 renal): > 100 µM
TGI (CAKI-1 renal): > 100 µM
GI50 (OVCAR-8 ovarian): > 100 µM
TGI (OVCAR-8 ovarian): > 100 µM
GI50 (SW-620 colon): > 100 µM
TGI (SW-620 colon): > 100 µM
GI50 (UACC-62 melanoma): > 100 µM
TGI (UACC-62 melanoma): > 100 µM
GI50 (SK-MEL-2 melanoma): > 100 µM
TGI (SK-MEL-2 melanoma): > 100 µM
GI50 (M14 melanoma): > 100 µM
TGI (M14 melanoma): > 100 µM
GI50 (NCI-H322M lung): > 100 µM
TGI (NCI-H322M lung): > 100 µM
GI50 (SN12C renal): > 100 µM
TGI (SN12C renal): > 100 µM
GI50 (SK-MEL-5 melanoma): > 100 µM
TGI (SK-MEL-5 melanoma): > 100 µM
GI50 (MCF7 breast): > 100 µM
TGI (MCF7 breast): > 100 µM
GI50 (MDA-MB-231 breast): > 100 µM
TGI (MDA-MB-231 breast): > 100 µM
GI50 (SR leukemia): > 100 µM
TGI (SR leukemia): > 100 µM
GI50 (HOP-62 NSCLC): > 100 µM
TGI (HOP-62 NSCLC): > 100 µM
GI50 (SK-OV-3 ovarian): 45.2 µM
TGI (SK-OV-3 ovarian): > 100 µM
GI50 (MDA-MB-435 melanoma): > 100 µM
TGI (MDA-MB-435 melanoma): > 100 µM
GI50 (MOLT-4 leukemia): 73.2 µM
TGI (MOLT-4 leukemia): > 100 µM
GI50 (RXF 393 renal): > 100 µM
TGI (RXF 393 renal): > 100 µM
GI50 (HS 578T breast): > 100 µM
TGI (HS 578T breast): > 100 µM
GI50 (MDA-MB-468 breast): 26.7 µM
TGI (MDA-MB-468 breast): 74.7 µM
GI50 (SNB-19 CNS): > 100 µM
TGI (SNB-19 CNS): > 100 µM
GI50 (RPMI-8226 leukemia): > 100 µM
TGI (RPMI-8226 leukemia): > 100 µM
GI50 (786-0 renal): > 100 µM
TGI (786-0 renal): > 100 µM
GI50 (BT-549 breast): > 100 µM
TGI (BT-549 breast): > 100 µM
GI50 (OVCAR-5 ovarian): > 100 µM
TGI (OVCAR-5 ovarian): > 100 µM
GI50 (IGROV1 ovarian): > 100 µM
TGI (IGROV1 ovarian): > 100 µM
GI50 (EKVX NSCLC): > 100 µM
TGI (EKVX NSCLC): > 100 µM
GI50 (HT29 colon): > 100 µM
TGI (HT29 colon): > 100 µM
GI50 (TK-10 renal): > 100 µM
TGI (TK-10 renal): > 100 µM
GI50 (A498 renal): > 100 µM
TGI (A498 renal): > 100 µM
GI50 (HCC-2998 colon): > 100 µM
TGI (HCC-2998 colon): > 100 µM
GI50 (A549 NSCLC): > 100 µM
TGI (A549 NSCLC): > 100 µM
GI50 (T-47D breast): > 100 µM
TGI (T-47D breast): > 100 µM
GI50 (NCI-H460 NSCLC): > 100 µM
TGI (NCI-H460 NSCLC): > 100 µM
GI50 (HOP-92 NSCLC): > 100 µM
TGI (HOP-92 NSCLC): > 100 µM
GI50 (NCI-H23 lung): > 100 µM
TGI (NCI-H23 lung): > 100 µM
GI50 (SNB-75 CNS): > 100 µM
TGI (SNB-75 CNS): > 100 µM
GI50 (COLO 205 colon): > 100 µM
TGI (COLO 205 colon): > 100 µM
GI50 (SF-268 CNS): > 100 µM
TGI (SF-268 CNS): > 100 µM
GI50 (U251 glioblastoma): > 100 µM
TGI (U251 glioblastoma): > 100 µM
GI50 (SF-295 CNS): > 100 µM
TGI (SF-295 CNS): > 100 µM
GI50 (HCT-15 colon): > 100 µM
TGI (HCT-15 colon): > 100 µM
GI50 (UACC-257 melanoma): > 100 µM
TGI (UACC-257 melanoma): > 100 µM
GI50 (DU-145 prostate): > 100 µM
TGI (DU-145 prostate): > 100 µM
GI50 (NCI-H226 lung): > 100 µM
TGI (NCI-H226 lung): > 100 µM
GI50 (SF-539 CNS): > 100 µM
TGI (SF-539 CNS): > 100 µM
GI50 (CCRF-CEM leukemia): 62.4 µM
TGI (CCRF-CEM leukemia): > 100 µM
GI50 (SK-MEL-28 melanoma): > 100 µM
TGI (SK-MEL-28 melanoma): > 100 µM
GI50 (OVCAR-4 ovarian): 62.9 µM
TGI (OVCAR-4 ovarian): > 100 µM
GI50 (KM12 colon): > 100 µM
TGI (KM12 colon): > 100 µM
GI50 (NCI/ADR-RES ovarian): > 100 µM
TGI (NCI/ADR-RES ovarian): > 100 µM
GI50 (PC-3 prostate): > 100 µM
TGI (PC-3 prostate): > 100 µM
GI50 (MALME-3M melanoma): > 100 µM
TGI (MALME-3M melanoma): > 100 µM
GI50 (ACHN renal): > 100 µM
TGI (ACHN renal): > 100 µM
GI50 (OVCAR-3 ovarian): > 100 µM
TGI (OVCAR-3 ovarian): > 100 µM
